Results published in patent US20110039847A1, “AMIDE DERIVATIVES AS SIRTUIN MODULATORS” (Sirtris Pharmaceuticals, Inc, priority 2007, published 2011).

Molecular target: T1, SIRT1 (Homo sapiens, UniProt Q96EB6)
T1 sequence (Q96EB6 1-747): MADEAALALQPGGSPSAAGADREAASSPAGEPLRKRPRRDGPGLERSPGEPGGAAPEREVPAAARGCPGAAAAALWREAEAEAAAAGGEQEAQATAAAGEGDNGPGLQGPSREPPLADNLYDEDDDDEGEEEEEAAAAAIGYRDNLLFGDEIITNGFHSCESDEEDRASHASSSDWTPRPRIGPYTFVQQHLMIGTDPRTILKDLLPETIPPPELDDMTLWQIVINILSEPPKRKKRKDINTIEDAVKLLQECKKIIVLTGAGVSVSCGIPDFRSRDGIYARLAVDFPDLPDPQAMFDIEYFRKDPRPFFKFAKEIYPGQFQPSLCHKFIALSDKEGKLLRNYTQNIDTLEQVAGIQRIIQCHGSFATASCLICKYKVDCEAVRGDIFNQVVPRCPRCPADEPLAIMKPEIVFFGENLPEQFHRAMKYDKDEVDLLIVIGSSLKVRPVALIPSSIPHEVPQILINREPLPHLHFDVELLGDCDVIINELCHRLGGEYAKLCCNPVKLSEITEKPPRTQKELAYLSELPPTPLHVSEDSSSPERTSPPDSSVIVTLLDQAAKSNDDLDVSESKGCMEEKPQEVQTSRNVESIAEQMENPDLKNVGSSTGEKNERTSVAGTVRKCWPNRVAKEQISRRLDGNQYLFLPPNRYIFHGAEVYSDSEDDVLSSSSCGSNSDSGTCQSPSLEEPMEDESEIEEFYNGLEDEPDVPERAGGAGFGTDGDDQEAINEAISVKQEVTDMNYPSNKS
Test: Mass spectrometry based SIRT1 deacetylation (activation) assay
Assay type: biochemical
Conditions: 0.5 μM peptide substrate, 120 μM βNAD+, 10 nM SIRT1, 25 min at 25° C.; for Emax: 25 min, read-out: % Fold Act. (percent maximum fold activation)

| EC1.5 | Emax [%] | Structure (SMILES) |
| --- | --- | --- |
| A (EC1.5≦1 uM) | ≥ 300 | CN(C)CCNc1cc(C(=O)Nc2ccccc2C(=O)Nc2c(Cl)cccc2Cl)nc(-c2ccccc2)n1 [Compound 162, N-(2-(2,6-dichlorophenylcarbamoyl)phenyl)-6-(2-(dimethylamino)ethylamino)-2-phenylpyrimidine-4-carboxamide] |
| A (EC1.5≦1 uM) | 150 to 300 | CNCCN(C)c1cc(C(=O)Nc2ccccc2-c2nnc(C3CCC3)s2)nc(-c2ccccc2)n1 [Compound 47] |
| A (EC1.5≦1 uM) | ≥ 300 | CN(C)CCNc1cc(C(=O)Nc2ccccc2-c2nnc(-c3cccnc3)s2)nc(-c2ccccc2)n1 [Compound 77] |
| B (EC1.5>1 and ≦10 uM) | 150 to 300 | CN(C)CCNc1cc(C(=O)Nc2ccccc2-c2cccnc2)nc(-c2ccccc2)n1 [Compound 11] |
| A (EC1.5≦1 uM) | 150 to 300 | CCN(CCN(C)C)c1cc(C(=O)Nc2ccccc2C(=O)NC2CCCCC2)nc(-c2ccccc2)n1 [Compound 165, N-(2-(cyclohexylcarbamoyl)phenyl)-6-((2-(dimethylamino)ethyl)(ethyl)amino)-2-phenylpyrimidine-4-carboxamide] |
| A (EC1.5≦1 uM) | 150 to 300 | CCN1CCN(c2cc(C(=O)Nc3ccccc3-c3nncs3)nc(-c3ccccc3)n2)CC1=O [Compound 96] |
| A (EC1.5≦1 uM) | 150 to 300 | CCN(CCN(C)C)c1cc(C(=O)Nc2ccccc2C(=O)NC2CC2)nc(-c2ccccc2)n1 [Compound 168, N-(2-(cyclopropylcarbamoyl)phenyl)-6-((2-(dimethylamino)ethyl)(ethyl)amino)-2-phenylpyrimidine-4-carboxamide] |
| A (EC1.5≦1 uM) | 150 to 300 | NC(=O)c1nnc(-c2ccccc2NC(=O)c2cc(N3CCNCC3)nc(-c3ccccc3)n2)s1 [Compound 67] |
| A (EC1.5≦1 uM) | ≥ 300 | CN(C)CCN(C)c1cc(C(=O)Nc2ccccc2-c2nncs2)nc(-c2ccccc2)n1 [Compound 27] |
| B (EC1.5>1 and ≦10 uM) | ≥ 300 | CN(C)CCNc1cc(C(=O)Nc2ccccc2-c2ccccn2)nc(-c2ccccc2)n1 [Compound 28] |
| A (EC1.5≦1 uM) | ≥ 300 | O=C(Nc1ccccc1-c1nnc(N2CCOCC2)s1)c1cc(NC(CO)CO)nc(-c2ccccc2)n1 [Compound 102] |
| B (EC1.5>1 and ≦10 uM) | ≥ 300 | Cc1csc(-c2ccccc2NC(=O)c2cc(NCCN(C)C)nc(-c3ccccc3)n2)n1 [Compound 7] |
| A (EC1.5≦1 uM) | 150 to 300 | CN(C)CCNc1cc(C(=O)Nc2ccccc2-c2nnc(C(N)=O)s2)nc(-c2ccccc2)n1 [Compound 66] |
| B (EC1.5>1 and ≦10 uM) | 150 to 300 | CN(C)CCNc1cc(C(=O)Nc2ccccc2-c2nnc(C3CCCC3)s2)nc(-c2ccccc2)n1 [Compound 49] |
| A (EC1.5≦1 uM) | ≥ 300 | O=C1CN(c2cc(C(=O)Nc3ccccc3-c3nnc(C(=O)N4CCOCC4)s3)nc(-c3ccccc3)n2)CCN1 [Compound 89] |
| A (EC1.5≦1 uM) | ≥ 300 | O=C(Nc1ccccc1-c1nnc(N2CCOCC2)s1)c1cc(OC[C@@H](O)CO)nc(-c2ccccc2)n1 [Compound 108] |
| A (EC1.5≦1 uM) | ≥ 300 | CC(=O)c1ccccc1NC(=O)c1cc(NC2CCNCC2)nc(-c2ccccc2)n1 [Compound 140] |
| A (EC1.5≦1 uM) | ≥ 300 | CCN(CCN(C)C)c1cc(C(=O)Nc2ccccc2C(=O)N[C@@H]2CCCC[C@@H]2O)nc(-c2ccccc2)n1 [Compound 170, 6-((2-(dimethylamino)ethyl)(ethyl)amino)-N-(2-((1R,2S)-2-hydroxycyclohexylcarbamoyl)phenyl)-2-phenylpyrimidine-4-carboxamide] |
| A (EC1.5≦1 uM) | 150 to 300 | CCN(CCN(C)C)c1cc(C(=O)Nc2ccccc2-c2nnc(C3CCC3)s2)nc(-c2ccccc2)n1 [Compound 51] |
| B (EC1.5>1 and ≦10 uM) | ≥ 300 | CN(C)CCNc1cc(C(=O)Nc2ccccc2-c2ncc(C(C)(C)C)s2)nc(-c2ccccc2)c1 [Compound 29] |
| A (EC1.5≦1 uM) | 150 to 300 | O=C(Nc1ccccc1-c1ncc(-c2ccccc2)s1)c1cc(N2CCNCC2)nc(-c2ccccc2)n1 [Compound 18] |
| B (EC1.5>1 and ≦10 uM) | 150 to 300 | CN(C)CCNc1cc(C(=O)Nc2ccccc2-n2cc(-c3ccccc3)cn2)nc(-c2ccccc2)n1 [Compound 24] |

| EC1.5 | Emax [%] | Structure (SMILES) |
| --- | --- | --- |
| A (EC1.5≦1 uM) | ≥ 300 | CN(C)CCNc1cc(C(=O)Nc2ccccc2C(=O)Nc2ccccc2C(N)=O)nc(-c2ccccc2)n1 [Compound 150, N-(2-(2-carbamoylphenylcarbamoyl)phenyl)-6-(2-(dimethylamino)ethylamino)-2-phenylpyrimidine-4-carboxamide] |
| B (EC1.5>1 and ≦10 uM) | 150 to 300 | CN(C)CCNc1cc(C(=O)Nc2ccccc2C(=O)NCCS(C)(=O)=O)nc(-c2ccccc2)n1 [Compound 149, 6-(2-(dimethylamino)ethylamino)-N-(2-(2-(methylsulfonyl)ethylcarbamoyl)phenyl)-2-phenylpyrimidine-4-carboxamide] |
| A (EC1.5≦1 uM) | ≥ 300 | O=C1CN(c2cc(C(=O)Nc3ccccc3-c3nncs3)nc(-c3ccccc3)n2)CCN1 [Compound 95] |
| B (EC1.5>1 and ≦10 uM) | 150 to 300 | CCN(CCN(C)C)c1cc(C(=O)Nc2ccccc2Br)nc(-c2ccccc2)n1 [Compound 159] |
| B (EC1.5>1 and ≦10 uM) | 150 to 300 | CN(C)CCNc1cc(C(=O)Nc2ccccc2Br)nc(-c2ccccc2)n1 [Compound 136] |
| A (EC1.5≦1 uM) | ≥ 300 | CN(C)CCNc1cc(C(=O)Nc2ccccc2-c2nnc(-c3ccccn3)s2)nc(-c2ccccc2)n1 [Compound 73] |
| A (EC1.5≦1 uM) | ≥ 300 | CN(C)CCNc1cc(C(=O)Nc2ccccc2-c2nnc(-c3ccccc3)s2)nc(-c2ccccc2)c1 [Compound 33] |
| A (EC1.5≦1 uM) | 150 to 300 | COCCNc1cc(C(=O)Nc2ccccc2-c2nnc(N3CCN4CCC[C@H]4C3)s2)nc(-c2ccccc2)n1 [Compound 117] |
| A (EC1.5≦1 uM) | ≥ 300 | O=C1CN(c2cc(C(=O)Nc3ccccc3-c3nnc(N4CCOCC4)s3)nc(-c3ccccc3)n2)CCN1 [Compound 103] |
| A (EC1.5≦1 uM) | 150 to 300 | CCN1CCN(c2cc(C(=O)Nc3ccccc3-c3nnc(N4CCOCC4)s3)nc(-c3ccccc3)n2)CC1=O [Compound 104] |
| A (EC1.5≦1 uM) | 150 to 300 | CN(C)CCNc1cc(C(=O)Nc2ccccc2-c2nnc(-c3ccccc3)s2)nc(-c2ccccc2)n1 [Compound 25] |
| A (EC1.5≦1 uM) | 150 to 300 | NC(=O)c1nnc(-c2ccccc2NC(=O)c2cc(N3CCN4CCC[C@H]4C3)nc(-c3ccccc3)n2)s1 [Compound 69] |
| A (EC1.5≦1 uM) | ≥ 300 | CCN(CCN(C)C)c1cc(C(=O)Nc2ccccc2-c2ncc(-c3ccccc3)o2)nc(-c2ccccc2)c1 [Compound 34] |
| A (EC1.5≦1 uM) | ≥ 300 | CN1CCN(c2cc(C(=O)Nc3ccccc3-c3nnc(C(=O)N4CCOCC4)s3)nc(-c3ccccc3)n2)CC1=O [Compound 88] |
| A (EC1.5≦1 uM) | ≥ 300 | CN(C)CCNc1cc(C(=O)Nc2ccccc2-c2ncc(-c3ccccc3)o2)nc(-c2ccccc2)c1 [Compound 30] |
| B (EC1.5>1 and ≦10 uM) | ≥ 300 | CN(C)CCNc1cc(C(=O)Nc2ccccc2C(N)=O)nc(-c2ccccc2)n1 [Compound 3] |
| B (EC1.5>1 and ≦10 uM) | 150 to 300 | CN(C)CCNc1cc(C(=O)Nc2ccccc2C(=O)Nc2ccccc2)nc(-c2ccccc2)n1 [Compound 128, 6-(2-(dimethylamino)ethylamino)-2-phenyl-N-(2-(phenylcarbamoyl)phenyl)pyrimidine-4-carboxamide] |
| A (EC1.5≦1 uM) | ≥ 300 | CCN(CCN(C)C)c1cc(C(=O)Nc2ccccc2-c2nnc(SC)s2)nc(-c2ccccc2)n1 [Compound 115] |
| B (EC1.5>1 and ≦10 uM) | ≥ 300 | CN(C)CCNc1cc(C(=O)Nc2ccccc2-c2ccco2)nc(-c2ccccc2)n1 [Compound 16] |
| A (EC1.5≦1 uM) | 150 to 300 | Cc1nnc(-c2ccccc2NC(=O)c2cc(NCCN(C)C)nc(-c3ccccc3)n2)s1 [Compound 21] |
| A (EC1.5≦1 uM) | ≥ 300 | CCN(CCN(C)C)c1cc(C(=O)Nc2ccccc2C(=O)NC2CCC2)nc(-c2ccccc2)n1 [Compound 164, N-(2-(cyclobutylcarbamoyl)phenyl)-6-((2-(dimethylamino)ethyl)(ethyl)amino)-2-phenylpyrimidine-4-carboxamide] |
